Species: Rattus norvegicus
Test: DrugMatrix - Regimen: Daily Repeat
Format: toxicity, organism-based, Sprague-Dawley
Set-up: regimen Daily Repeat, gender Male, age 6-8 weeks
Conditions: in vivo, po, route oral GAVAGE, vehicle 100 % WATER; for ABSOLUTE BASOPHIL / ABSOLUTE EOSINOPHIL / ABSOLUTE LYMPHOCYTE / ABSOLUTE MONOCYTE / ABSOLUTE SEGMENTED NEUTROPHIL / BASOPHIL / EOSINOPHIL / ERYTHROCYTE COUNT / HEMATOCRIT / HEMOGLOBIN / LEUKOCYTE COUNT / LYMPHOCYTE / MEAN CORPUSCULAR HEMOGLOBIN / MEAN CORPUSCULAR HEMOGLOBIN CONCENTRATION / MEAN CORPUSCULAR VOLUME / MONOCYTE / NEUTROPHIL / NUCLEATED RED BLOOD CELLS / PLATELET COUNT: tissue Blood; for ALANINE AMINOTRANSFERASE / ALBUMIN / ALKALINE PHOSPHATASE / ASPARTATE AMINOTRANSFERASE / BLOOD UREA NITROGEN / CARBON DIOXIDE / CHLORIDE / CHOLESTEROL / CREATINE PHOSPHOKINASE / CREATININE / GLUCOSE / LACTATE DEHYDROGENASE / LIPASE / PHOSPHORUS / POTASSIUM / SODIUM / TOTAL BILIRUBIN / TOTAL PROTEIN / URIC ACID: tissue Plasma
[1] = 0 mg/kg, 72 h, dose level Control, time 3 day
[2] = 0 mg/kg, 120 h, dose level Control, time 5 day
[3] = 58 mg/kg, 72 h, dose level Low, time 3 day

SMILES: NC12CC3CC(CC(C3)C1)C2 [AMANTADINE]
- ABSOLUTE BASOPHIL [1]: 0 CELLS/uL
- ABSOLUTE EOSINOPHIL [1]: 58.83 CELLS/uL
- ABSOLUTE LYMPHOCYTE [1]: 11823.5 CELLS/uL
- ABSOLUTE MONOCYTE [1]: 169 CELLS/uL
- ABSOLUTE SEGMENTED NEUTROPHIL [1]: 815.33 CELLS/uL
- BASOPHIL [1]: 0%
- EOSINOPHIL [1]: 0.5%
- ERYTHROCYTE COUNT [1]: 5.52 x10E6/uL
- HEMATOCRIT [1]: 35.77%
- HEMOGLOBIN [1]: 14.28 G/DL
- LEUKOCYTE COUNT [1]: 12.87 x10E3/uL
- LYMPHOCYTE [1]: 91.67%
- MEAN CORPUSCULAR HEMOGLOBIN [1]: 25.92 pg
- MEAN CORPUSCULAR HEMOGLOBIN CONCENTRATION [1]: 39.95 G/DL
- MEAN CORPUSCULAR VOLUME [1]: 64.85 fL
- MONOCYTE [1]: 1.33%
- NEUTROPHIL [1]: 6.5%
- NUCLEATED RED BLOOD CELLS [1]: 0 /100WBC
- PLATELET COUNT [1]: 1246.17 x10E3/uL
- ALANINE AMINOTRANSFERASE [1]: 66 u/L
- ALBUMIN [1]: 4.25 G/DL
- ALKALINE PHOSPHATASE [1]: 416 u/L
- ASPARTATE AMINOTRANSFERASE [1]: 106.17 u/L
- BLOOD UREA NITROGEN [1]: 12.67 mg/dL
- CARBON DIOXIDE [1]: 31.83 mmol/L
- CHLORIDE [1]: 102.5 MEQ/L
- CHOLESTEROL [1]: 69 mg/dL
- CREATINE PHOSPHOKINASE [1]: 601.83 u/L
- CREATININE [1]: 0.18 mg/dL
- GLUCOSE [1]: 154.5 mg/dL
- LACTATE DEHYDROGENASE [1]: 301.83 u/L
- LIPASE [1]: 11.17 u/L
- PHOSPHORUS [1]: 12.08 mg/dL
- POTASSIUM [1]: 6.12 MEQ/L
- SODIUM [1]: 145.2 MEQ/L
- TOTAL BILIRUBIN [1]: 0.17 mg/dL
- TOTAL PROTEIN [1]: 6.1 G/DL
- URIC ACID [1]: 1.57 mg/dL
- ABSOLUTE BASOPHIL [2]: 0 CELLS/uL
- ABSOLUTE EOSINOPHIL [2]: 19.33 CELLS/uL
- ABSOLUTE LYMPHOCYTE [2]: 12577.83 CELLS/uL
- ABSOLUTE MONOCYTE [2]: 106.33 CELLS/uL
- ABSOLUTE SEGMENTED NEUTROPHIL [2]: 896.5 CELLS/uL
- BASOPHIL [2]: 0%
- EOSINOPHIL [2]: 0.17%
- ERYTHROCYTE COUNT [2]: 5.84 x10E6/uL
- HEMATOCRIT [2]: 36.88%
- HEMOGLOBIN [2]: 14.48 G/DL
- LEUKOCYTE COUNT [2]: 13.6 x10E3/uL
- LYMPHOCYTE [2]: 92.17%
- MEAN CORPUSCULAR HEMOGLOBIN [2]: 24.85 pg
- MEAN CORPUSCULAR HEMOGLOBIN CONCENTRATION [2]: 39.3 G/DL
- MEAN CORPUSCULAR VOLUME [2]: 63.23 fL
- MONOCYTE [2]: 0.83%
- NEUTROPHIL [2]: 6.83%
- NUCLEATED RED BLOOD CELLS [2]: 0 /100WBC
- PLATELET COUNT [2]: 1223.5 x10E3/uL
- ALANINE AMINOTRANSFERASE [2]: 55.33 u/L
- ALBUMIN [2]: 4.08 G/DL
- ALKALINE PHOSPHATASE [2]: 355.5 u/L
- ASPARTATE AMINOTRANSFERASE [2]: 87.67 u/L
- BLOOD UREA NITROGEN [2]: 15.33 mg/dL
- CARBON DIOXIDE [2]: 33.83 mmol/L
- CHLORIDE [2]: 99.67 MEQ/L
- CHOLESTEROL [2]: 72.17 mg/dL
- CREATINE PHOSPHOKINASE [2]: 268.33 u/L
- CREATININE [2]: 0.15 mg/dL
- GLUCOSE [2]: 152.5 mg/dL
- LACTATE DEHYDROGENASE [2]: 212.67 u/L
- LIPASE [2]: 10.83 u/L
- PHOSPHORUS [2]: 11.65 mg/dL
- POTASSIUM [2]: 6.73 MEQ/L
- SODIUM [2]: 142.43 MEQ/L
- TOTAL BILIRUBIN [2]: 0.23 mg/dL
- TOTAL PROTEIN [2]: 6.07 G/DL
- URIC ACID [2]: 1.7 mg/dL
- ABSOLUTE BASOPHIL [3]: 0 CELLS/uL
- ABSOLUTE EOSINOPHIL [3]: 0 CELLS/uL
- ABSOLUTE LYMPHOCYTE [3]: 14460 CELLS/uL
- ABSOLUTE MONOCYTE [3]: 391.33 CELLS/uL
- ABSOLUTE SEGMENTED NEUTROPHIL [3]: 1148.67 CELLS/uL
- BASOPHIL [3]: 0%
- EOSINOPHIL [3]: 0%
- ERYTHROCYTE COUNT [3]: 5.53 x10E6/uL
- HEMATOCRIT [3]: 35.03%
- HEMOGLOBIN [3]: 14 G/DL
- LEUKOCYTE COUNT [3]: 16 x10E3/uL
- LYMPHOCYTE [3]: 90%
- MEAN CORPUSCULAR HEMOGLOBIN [3]: 25.33 pg
- MEAN CORPUSCULAR HEMOGLOBIN CONCENTRATION [3]: 40 G/DL
- MEAN CORPUSCULAR VOLUME [3]: 63.37 fL
- MONOCYTE [3]: 2.33%
- NEUTROPHIL [3]: 7.67%
- NUCLEATED RED BLOOD CELLS [3]: 0 /100WBC
- PLATELET COUNT [3]: 1206.67 x10E3/uL
- ALANINE AMINOTRANSFERASE [3]: 47.67 u/L
- ALBUMIN [3]: 4.17 G/DL
- ALKALINE PHOSPHATASE [3]: 377.33 u/L
- ASPARTATE AMINOTRANSFERASE [3]: 90 u/L
- BLOOD UREA NITROGEN [3]: 13.33 mg/dL
- CARBON DIOXIDE [3]: 31.67 mmol/L
- CHLORIDE [3]: 102.33 MEQ/L
- CHOLESTEROL [3]: 67 mg/dL
- CREATINE PHOSPHOKINASE [3]: 444.67 u/L
- CREATININE [3]: 0.13 mg/dL
- GLUCOSE [3]: 137.33 mg/dL
- LACTATE DEHYDROGENASE [3]: 367.33 u/L
- LIPASE [3]: 11.67 u/L
- PHOSPHORUS [3]: 12.1 mg/dL
- POTASSIUM [3]: 6.36 MEQ/L
- SODIUM [3]: 145.43 MEQ/L
- TOTAL BILIRUBIN [3]: 0.17 mg/dL
- TOTAL PROTEIN [3]: 5.9 G/DL
- URIC ACID [3]: 1.6 mg/dL

Source: ChEMBL document CHEMBL3885881, “DrugMatrix”
